Two compounds from ChEMBL document CHEMBL4011651, “Discovery of the Irreversible Covalent FGFR Inhibitor 8-(3-(4-Acryloylpiperazin-1-yl)propyl)-6-(2,6-dichloro-3,5-dimethoxyphenyl)-2-(methylamino)pyrido[2,3-d]pyrimidin-7(8H)-one (PRN1371) for the Treatment of Solid Tumors” (J Med Chem, 2017) can be followed below.

Data set [1] can be described thus: in vitro. To be noted: mouse, whole blood.
Data set [2] in a line: Oral bioavailability in Beagle dog at 10 mg/kg. The data set is classed as ADME, organism-based, Canis lupus familiaris. To be noted: in vivo.
Data set [3] can be described thus: Plasma concentration in rat at 10 mg/kg, po measured at 1 hr post dose. It counts as ADME, organism-based.
Data set [4] can be described thus: Volume of distribution at steady state in Beagle dog at 2 mg/kg, iv. It counts as ADME, organism-based, Canis lupus familiaris. To be noted: in vivo, read-out: Vdss.
Data set [5] can be described thus: Oral bioavailability in cynomolgus monkey at 10 mg/kg. It counts as ADME, organism-based, Macaca fascicularis. To be noted: in vivo.
The nature of data set [6]: AUC in cynomolgus monkey at 10 mg/kg, po. It counts as ADME, organism-based, Macaca fascicularis. To be noted: in vivo.
The nature of data set [7]: Half life in cynomolgus monkey at 1.23 mg/kg, iv. To be noted: in vivo. The data set is classed as ADME, organism-based, Macaca fascicularis.
The nature of data set [8]: Clearance in Beagle dog at 2 mg/kg, iv. To be noted: in vivo. The data set is classed as ADME, organism-based, Canis lupus familiaris.
Data set [9] in a line: AUC in Beagle dog at 10 mg/kg, po. To be noted: in vivo. It counts as ADME, organism-based, Canis lupus familiaris.
Data set [10] is described as follows: Cmax in Sprague-Dawley rat at 2 mg/kg, iv. It counts as ADME, organism-based. Details: dose 2 mg/kg, route intravenous; call rule not given here. To be noted: in vivo.
The nature of data set [11]: Clearance in Sprague-Dawley rat at 2 mg/kg, iv. To be noted: in vivo. The data set is classed as ADME, organism-based.
Data set [12] is described as follows: Half life in Sprague-Dawley rat at 2 mg/kg, iv. The data set is classed as ADME, organism-based. To be noted: in vivo.
Data set [13] in a line: Volume of distribution at steady state in Sprague-Dawley rat at 2 mg/kg, iv. The data set is classed as ADME, organism-based. To be noted: in vivo, read-out: Vdss.
Data set [14] can be described thus: Volume of distribution at steady state in cynomolgus monkey at 1.23 mg/kg, iv. The data set is classed as ADME, organism-based, Macaca fascicularis. To be noted: in vivo, read-out: Vdss.
A short description of data set [15]: AUC in Sprague-Dawley rat at 20 mg/kg, po. It counts as ADME, organism-based. To be noted: in vivo.
A short description of data set [16]: AUC in Beagle dog at 2 mg/kg, iv. It counts as ADME, organism-based, Canis lupus familiaris. To be noted: in vivo.
Data set [17] can be described thus: Clearance in cynomolgus monkey at 1.23 mg/kg, iv. To be noted: in vivo. The data set is classed as ADME, organism-based, Macaca fascicularis.
A short description of data set [18]: Cmax in cynomolgus monkey at 1.23 mg/kg, iv. Details: dose 1.23 mg/kg, route intravenous. To be noted: in vivo. The data set is classed as ADME, organism-based, Macaca fascicularis.
Data set [19] in a line: AUC in cynomolgus monkey at 1.23 mg/kg, iv. It counts as ADME, organism-based, Macaca fascicularis. To be noted: in vivo.
A short description of data set [20]: Half life in Sprague-Dawley rat at 20 mg/kg, po. The data set is classed as ADME, organism-based. To be noted: in vivo.
Data set [21] in a line: Cmax in Beagle dog at 10 mg/kg, po. To be noted: in vivo. The data set is classed as ADME, organism-based, Canis lupus familiaris. Details: dose 10 mg/kg, route oral.
The next data set deals with Plasma. As to the kind of experiment: Plasma concentration in rat at 10 mg/kg, po measured at 12 hrs post dose. To be noted: in vivo. It counts as ADME, organism-based.
Data set [22] can be described thus: in vitro. To be noted: human, plasma.
Data set [23] in a line: Cmax in Sprague-Dawley rat at 20 mg/kg, po. To be noted: in vivo. It counts as ADME, organism-based. Details: dose 20 mg/kg, route oral.
A short description of data set [24]: Cmax in cynomolgus monkey at 10 mg/kg, po. More on the design: dose 10 mg/kg, route oral. To be noted: in vivo. It counts as ADME, organism-based, Macaca fascicularis.
Data set [25] in a line: Half life in cynomolgus monkey at 10 mg/kg, po. It counts as ADME, organism-based, Macaca fascicularis. To be noted: in vivo.
The next data set is described as follows: in vivo. To be noted: Sprague-Dawley, rat, iv, 2 mg/kg.
The nature of data set [26]: Cmax in Beagle dog at 2 mg/kg, iv. The data set is classed as ADME, organism-based, Canis lupus familiaris. Details: dose 2 mg/kg, route intravenous. To be noted: in vivo.
The nature of data set [27]: in vitro. To be noted: human, whole blood.

Compound `C=CC(=O)Nc1ccc(CCn2c(=O)c(-c3cc(OC)cc(OC)c3Cl)cc3cnc(NC)nc32)cn1` displayed a half-life in “in vitro [1]” of 51 min.

In the case of `C=CC(=O)N1CCN(CCCn2c(=O)c(-c3c(Cl)c(OC)cc(OC)c3Cl)cc3cnc(NC)nc32)CC1` [PRN-1371], the bioavailability in data set [2] was found to be 94%; in data set [5] it was 2.3%. The compound also registered a concentration at 1 h in [3] of 538 ng/mL. In addition, the figures for the Vd in data set [4], in data set [13] and in [14] were 2.9 L/kg, 7.2 L/kg and 1.14 L/kg, respectively. In addition, the AUC in data set [6] was found to be 84.4 ng·h/mL; in [9] it was 1340 ng·h/mL; in data set [15] it was 4350 ng·h/mL; in [16], 284 ng·h/mL; in [19], 472 ng·h/mL; in “in vivo”, 208 ng·h/mL. In addition, the half-life in [7] is 20.9 min; in data set [12], 45.8 min; in [20], 226 min; in data set [25] it was 29.2 min. The values for the clearance in [8], in data set [11] and in data set [17] were 117 mL/min/kg, 160 mL/min/kg and 42.9 mL/min/kg, respectively. Also, the highest concentration (Cmax) is 596 ng/mL in [10]; 999 ng/mL in data set [18]; 1100 ng/mL in data set [21]; 1780 ng/mL in data set [23]; 95.8 ng/mL in [24]; 1090 ng/mL in data set [26]. For the same compound, the Drug uptake entry with Plasma is listed as “Not Active”. For the same compound, the amount remaining at 2 h in the data set “in vitro [22]” was determined as 70%; in “in vitro [27]”, 73%.

By half-life is commonly meant the time in which the quantity being followed falls by half. By bioavailability is commonly meant the share of a dose that reaches the circulation, judged against a reference dose that is usually intravenous. What is called AUC is concentration integrated over time. By clearance is commonly meant the rate of elimination divided by the concentration. The Cmax is the maximum level reached in the sampled fluid or tissue. Broadly, the amount remaining is the share of the starting amount still present when the sample was taken.
